Data taken from ChEMBL document CHEMBL1142897, “Synthesis, characterization and antimicrobial activity of Fe(II), Zn(II), Cd(II) and Hg(II) complexes with 2,6-bis(benzimidazol-2-yl) pyridine ligand” (2007).

Legend:
Micrococcus luteus [1] = assay: Antibacterial activity against Micrococcus luteus after 72 hrs by disk diffusion method; format: functional
Pseudomonas aeruginosa [2] = assay: Antibacterial activity against Pseudomonas aeruginosa after 72 hrs by disk diffusion method; format: functional
Staphylococcus aureus [3] = assay: Antibacterial activity against Staphylococcus aureus after 72 hrs by disk diffusion method; format: functional
Klebsiella pneumoniae [4] = assay: Antibacterial activity against Klebsiella pneumoniae after 72 hrs by disk diffusion method; format: functional
Proteus vulgaris [5] = assay: Antibacterial activity against Proteus vulgaris after 72 hrs by disk diffusion method; format: functional
Bacillus cereus [6] = assay: Antibacterial activity against Bacillus cereus after 72 hrs by disk diffusion method; format: functional
Escherichia coli [7] = assay: Antibacterial activity against Escherichia coli after 72 hrs by disk diffusion method; format: functional
Listeria monocytogenes [8] = assay: Antibacterial activity against Listeria monocytogenes after 72 hrs by disk diffusion method; format: functional
[9] = system: Mycolicibacterium smegmatis; assay: Antibacterial activity against Mycobacterium smegmatis after 72 hrs by disk diffusion method; format: functional
Debaryomyces hansenii [10] = assay: Antifungal activity against Debaryomyces hansenii after 24 hrs by disk diffusion method; format: functional
[11] = system: Hanseniaspora guilliermondii; assay: Antifungal activity against Hanseniaspora guilliermondii after 24 hrs by disk diffusion method; format: functional
Rhodotorula mucilaginosa [12] = assay: Antifungal activity against Rhodotorula rubra after 24 hrs by disk diffusion method; format: functional
Kluyveromyces marxianus [13] = assay: Antifungal activity against Kluyveromyces fragilis after 24 hrs by disk diffusion method; format: functional
Candida albicans [14] = assay: Antifungal activity against Candida albicans after 24 hrs by disk diffusion method; format: functional
Bacillus cereus [15] = assay: Antibacterial activity against Bacillus cereus after 24 hrs by dilution method; format: functional, organism-based
Pseudomonas aeruginosa [16] = assay: Antibacterial activity against Pseudomonas aeruginosa after 24 hrs by dilution method; format: functional, organism-based
Listeria monocytogenes [17] = assay: Antibacterial activity against Listeria monocytogenes after 24 hrs by dilution method; format: functional, organism-based
Klebsiella pneumoniae [18] = assay: Antibacterial activity against Klebsiella pneumoniae after 24 hrs by dilution method; format: functional, organism-based
Micrococcus luteus [19] = assay: Antibacterial activity against Micrococcus luteus after 24 hrs by dilution method; format: functional, organism-based
Staphylococcus aureus [20] = assay: Antibacterial activity against Staphylococcus aureus after 24 hrs by dilution method; format: functional, organism-based
Proteus vulgaris [21] = assay: Antibacterial activity against Proteus vulgaris after 24 hrs by dilution method; format: functional, organism-based
Escherichia coli [22] = assay: Antibacterial activity against Escherichia coli after 24 hrs by dilution method; format: functional, organism-based
[23] = system: Mycolicibacterium smegmatis; assay: Antibacterial activity against Mycobacterium smegmatis after 24 hrs by dilution method; format: functional, organism-based
Debaryomyces hansenii [24] = assay: Antifungal activity against Debaryomyces hansenii after 24 hrs by dilution method; format: functional, organism-based
Kluyveromyces marxianus [25] = assay: Antifungal activity against Kluyveromyces fragilis after 24 hrs by dilution method; format: functional, organism-based
Rhodotorula mucilaginosa [26] = assay: Antifungal activity against Rhodotorula rubra after 24 hrs by dilution method; format: functional, organism-based
Candida albicans [27] = assay: Antifungal activity against Candida albicans after 24 hrs by dilution method; format: functional, organism-based
[28] = system: Hanseniaspora guilliermondii; assay: Antifungal activity against Hanseniaspora guilliermondii after 24 hrs by dilution method; format: functional, organism-based

CC1(C)S[C@@H]2[C@H](NC(=O)[C@H](N)c3ccccc3)C(=O)N2[C@H]1C(=O)O [AMPICILLIN]
inhibition zone (IZ) (Micrococcus luteus [1]): 32 mm
inhibition zone (IZ) (Pseudomonas aeruginosa [2]): 10 mm
inhibition zone (IZ) (Staphylococcus aureus [3]): 16 mm
inhibition zone (IZ) (Klebsiella pneumoniae [4]): 14 mm
inhibition zone (IZ) (Proteus vulgaris [5]): 16 mm
inhibition zone (IZ) (Bacillus cereus [6]): 12 mm
inhibition zone (IZ) (Escherichia coli [7]): 12 mm
inhibition zone (IZ) (Listeria monocytogenes [8]): 12 mm
inhibition zone (IZ) [9]: 21 mm

CO/N=C(\C(=O)N[C@@H]1C(=O)N2C(C(=O)O)=C(COC(C)=O)CS[C@H]12)c1csc(N)n1 [CEFOTAXIME]
inhibition zone (IZ) (Micrococcus luteus [1]): 32 mm
inhibition zone (IZ) (Pseudomonas aeruginosa [2]): 54 mm
inhibition zone (IZ) (Staphylococcus aureus [3]): 12 mm
inhibition zone (IZ) (Klebsiella pneumoniae [4]): 13 mm
inhibition zone (IZ) (Proteus vulgaris [5]): 18 mm
inhibition zone (IZ) (Bacillus cereus [6]): 14 mm
inhibition zone (IZ) (Escherichia coli [7]): 10 mm
inhibition zone (IZ) (Listeria monocytogenes [8]): 16 mm
inhibition zone (IZ) [9]: 11 mm

Clc1ccccc1C(c1ccccc1)(c1ccccc1)n1ccnc1 [CLOTRIMAZOLE]
inhibition zone (IZ) (Debaryomyces hansenii [10]): 18 mm
inhibition zone (IZ) [11]: 22 mm
inhibition zone (IZ) (Rhodotorula mucilaginosa [12]): 16 mm
inhibition zone (IZ) (Kluyveromyces marxianus [13]): 18 mm
inhibition zone (IZ) (Candida albicans [14]): 15 mm

CC(=O)N1CCN(c2ccc(OCC3COC(Cn4ccnc4)(c4ccc(Cl)cc4Cl)O3)cc2)CC1 (configuration not stated) [KETOCONAZOLE]
inhibition zone (IZ) (Debaryomyces hansenii [10]): 14 mm
inhibition zone (IZ) [11]: 24 mm
inhibition zone (IZ) (Rhodotorula mucilaginosa [12]): 22 mm
inhibition zone (IZ) (Kluyveromyces marxianus [13]): 16 mm
inhibition zone (IZ) (Candida albicans [14]): 21 mm

CC1COc2c(N3CCN(C)CC3)c(F)cc3c(=O)c(C(=O)O)cn1c23 (configuration not stated) [OFLOXACIN]
inhibition zone (IZ) (Micrococcus luteus [1]): 28 mm
inhibition zone (IZ) (Pseudomonas aeruginosa [2]): 44 mm
inhibition zone (IZ) (Staphylococcus aureus [3]): 24 mm
inhibition zone (IZ) (Klebsiella pneumoniae [4]): 28 mm
inhibition zone (IZ) (Proteus vulgaris [5]): 28 mm
inhibition zone (IZ) (Bacillus cereus [6]): 30 mm
inhibition zone (IZ) (Escherichia coli [7]): 30 mm
inhibition zone (IZ) (Listeria monocytogenes [8]): 30 mm
inhibition zone (IZ) [9]: 32 mm

CC1(C)S[C@@H]2[C@H](NC(=O)Cc3ccccc3)C(=O)N2[C@H]1C(=O)O [PENICILLIN G]
inhibition zone (IZ) (Micrococcus luteus [1]): 36 mm
inhibition zone (IZ) (Pseudomonas aeruginosa [2]): 8 mm
inhibition zone (IZ) (Staphylococcus aureus [3]): 13 mm
inhibition zone (IZ) (Klebsiella pneumoniae [4]): 18 mm
inhibition zone (IZ) (Proteus vulgaris [5]): 10 mm
inhibition zone (IZ) (Bacillus cereus [6]): 14 mm
inhibition zone (IZ) (Escherichia coli [7]): 18 mm
inhibition zone (IZ) (Listeria monocytogenes [8]): 10 mm
inhibition zone (IZ) [9]: 15 mm

CN(C)[C@@H]1C(O)=C(C(N)=O)C(=O)[C@@]2(O)C(O)=C3C(=O)c4c(O)cccc4[C@@](C)(O)[C@H]3C[C@@H]12 [TETRACYCLINE]
inhibition zone (IZ) (Micrococcus luteus [1]): 22 mm
inhibition zone (IZ) (Pseudomonas aeruginosa [2]): 34 mm
inhibition zone (IZ) (Staphylococcus aureus [3]): 26 mm
inhibition zone (IZ) (Klebsiella pneumoniae [4]): 30 mm
inhibition zone (IZ) (Proteus vulgaris [5]): 26 mm
inhibition zone (IZ) (Bacillus cereus [6]): 25 mm
inhibition zone (IZ) (Escherichia coli [7]): 28 mm
inhibition zone (IZ) (Listeria monocytogenes [8]): 28 mm
inhibition zone (IZ) [9]: 24 mm

CN[C@H](CC(C)C)C(=O)N[C@H]1C(=O)N[C@@H](CC(N)=O)C(=O)N[C@H]2C(=O)N[C@H]3C(=O)N[C@H](C(=O)N[C@H](C(=O)O)c4cc(O)cc(O)c4-c4cc3ccc4O)[C@H](O)c3ccc(c(Cl)c3)Oc3cc2cc(c3O[C@@H]2O[C@H](CO)[C@@H](O)[C@H](O)[C@H]2O[C@H]2C[C@](C)(N)[C@H](O)[C@H](C)O2)Oc2ccc(cc2Cl)[C@H]1O [VANCOMYCIN]
inhibition zone (IZ) (Micrococcus luteus [1]): 34 mm
inhibition zone (IZ) (Pseudomonas aeruginosa [2]): 10 mm
inhibition zone (IZ) (Staphylococcus aureus [3]): 13 mm
inhibition zone (IZ) (Klebsiella pneumoniae [4]): 22 mm
inhibition zone (IZ) (Proteus vulgaris [5]): 20 mm
inhibition zone (IZ) (Bacillus cereus [6]): 18 mm
inhibition zone (IZ) (Escherichia coli [7]): 22 mm
inhibition zone (IZ) (Listeria monocytogenes [8]): 26 mm
inhibition zone (IZ) [9]: 20 mm

GENTAMICIN
MIC (Bacillus cereus [15]): 6.25 mg/L
MIC (Pseudomonas aeruginosa [16]): 6.25 mg/L
MIC (Listeria monocytogenes [17]): 12.5 mg/L
MIC (Klebsiella pneumoniae [18]): 6.25 mg/L
MIC (Micrococcus luteus [19]): 25 mg/L
MIC (Staphylococcus aureus [20]): 25 mg/L
MIC (Proteus vulgaris [21]): 6.25 mg/L
MIC (Escherichia coli [22]): 6.25 mg/L
MIC [23]: 12.5 mg/L

NYSTATIN
MIC (Debaryomyces hansenii [24]): 12.5 mg/L
inhibition zone (IZ) (Debaryomyces hansenii [10]): 16 mm
inhibition zone (IZ) [11]: 21 mm
MIC (Kluyveromyces marxianus [25]): 6.25 mg/L
inhibition zone (IZ) (Rhodotorula mucilaginosa [12]): 18 mm
MIC (Rhodotorula mucilaginosa [26]): 6.25 mg/L
MIC (Candida albicans [27]): 3.12 mg/L
inhibition zone (IZ) (Kluyveromyces marxianus [13]): 18 mm
MIC [28]: 3.12 mg/L
